Source: patent USRE45612E1, “Corrosion inhibitor composition applicable for aluminum and steel protection and procedure” (MD FIFTH WARD PROPERTIES, INC., priority 2001, dated 2015)

What was measured:
[1] = Salt spray exposure (ASTM B-117) of scribed aircraft primers containing the inhibitor pigment; settings: 2000 hours salt spray, scribe area
Protocol: The test was performed in a typical two component aircraft primer formulation, specifically recommended for aluminum protection. […] By visual examination of their physical state at the end of the test period, the coatings' corrosion inhibitor performance, considered directly proportional to the tested pigment components' corrosion inhibitive activity, was qualified. The scribed area was especially examined and the absence or presence of corrosion products, respectively, was interpreted as display of, or absence of, the respective corrosion inhibitor pigment's “throw power”. It will be apparent that the “throw power” is the discriminative characteristic of effective corrosion inhibitor pigments.

[2] = Salt spray exposure (ASTM B-117) of scribed coil primers, service life of coating; settings: on galvanized steel, relative to Sr-doped amorphous silica
Protocol: Steel Co.), at 0.6-0.7 mil dry film thickness, aged for at least 2 (two) days at room temperature, scribed and subsequently subjected to salt spray exposure (according to ASTM B-117). The scribes were applied in the typical cross form, and, in order to cut through the protective galvanic zinc coating from the area of the scribes, at appropriate depth. During salt spray exposure, the coatings' physical state was assessed periodically by visual examination. […] Service life of a coating is considered directly proportional to the related pigments' or additives' corrosion inhibitor performance, which is conveniently qualified by Ei, the Inhibitor Efficiency Index, defined as: […]

[3] = Solubility in water of the pigment; type: physicochemical
[4] = pH of saturated extract / leachate of the pigment; type: physicochemical

For `Sc1nnc(S)s1` [DMTD, 2,5-dimercapto-1,3,4 thiadiazole], the “"Throw Power" Observed” value [1] was “displayed throw power”.

For `C1CCC(NC2CCCCC2)CC1.S=c1[nH]c(=S)[nH]c(=S)[nH]1` [Example 7, Di-cyclohexyl mono-ammonium salt of trithiocyanuric acid], the “extension of service life of coil coatings over Sr-doped amorphous silica” value [2] was 200%.

In the case of `[S-]c1nnc(S)s1.[S-]c1nnc(S)s1.[Zn+2]` [Example 1, Zn(DMTD)2], the “solubility in water, at 24° C.” value [3] is reported as 400 µg/mL and the “pH (saturated extract)” value [4] is reported as 4.5-5.0.
